Data as given in patent publication US11202773B2, “Locally bioavailable drugs” (UNIVERSITY OF HOUSTON SYSTEM, priority 2015, dated 2021).

Tested on: Caco-2 cell monolayer
Assay: Metabolism and transport across Caco-2 cell monolayers
Assay type: in vitro ADME, human
Conditions: 0-8 hours
Experimental: The Caco-2 cell monolayer is a well-established FDA-recognized model to study the absorption, transport, and metabolism of drugs in the human gastrointestinal tract. This allows for prediction of the disposition of the new compounds in colonic epithelium that is also undergoing carcinogenesis, because Caco-2 is a human colorectal cancer cell line.
After 10 μM 6a1 was applied to the apical or basolateral side of the Caco-2 monolayer model, the concentrations of 6a1 and its main phase II metabolites, glucuronide and sulfate, were monitored at both sides (FIG. 6A-D). The concentration of aglycone was also monitored at both sides. […] The majority of sulfates were effluxed to the apical side, while less was transported to the basolateral side. The amount of glucuronide generated by Caco-2 cells was much less than that of sulfates. The glucuronide was also transported to both sides.

Cc1ccc(-c2cc(COc3ccccc3O)nn2-c2ccc(S(N)(=O)=O)cc2)cc1 [Compound 6a1]
Permeation of the Caco-2 cell membrane (10 μM applied to apical or basolateral side): permeated the Caco-2 cell membrane easily
Phase II conjugation inside Caco-2 cells (10 μM): rapidly conjugated by UGTs and SULTs
